Tests used:
SK-N-AS = assay: MTT cytotoxicity assay (% kill), SK-N-AS; type: cell-based, human; conditions: 1.0 μg/mL, MTT after five days
Method: (§1) The following human tumor cell lines were obtained and cultured in sextuplicate microwells at 37° C. and 5% CO2 in humidified air and in 10% FBS in Eagles MEM: SK—N—FI, SK—N-AS, LS-174T, WiDr, HuTu-80, MCF7, NCI-AR, MES-Sar, and PL-45. Cells from each cell line were separately treated with an amount of one of the compounds of Formula I, II, or III (see Table 1). Cells were exposed to each compound (0.1 μg/mL or 1.0 μg/mL) for one hour or 24 hours, rinsed with drug-free media, and incubated for an additional five days. The number of viable cells after five days was measured using an MTT (3-(4,5-dimethylthiazol-2-yl)-2,5-diphenyltetrazolium bromide) assay (see, e.g., Mosmann, J. Immunol. Methods, 65(1-2), 55-63 (1983)).
(§2) The cytotoxicity of each drug was determined and expressed as the percent of cells killed (“% kill”).

LS-174T = assay: MTT cytotoxicity assay (% kill), LS-174T; type: cell-based, human; conditions: 1.0 μg/mL, MTT after five days
Method: as §1, §2

[1] = system: Colon 38 (murine colon adenocarcinoma); assay: Disk diffusion assay, zone of inhibition, Colon 38; zone differentials, potency and product; type: cell-based; parameters: key to C38ΔL1210 / C38ΔCFU: difference of zone of inhibition values, in zone units; conditions: for Sum: C38ΔL1210 plus C38ΔCFU; for C38ΔL1210 / C38ΔCFU: difference between zone of inhibition values; for C38ΔL1210: Colon38 vs L1210 leukemia; for C38ΔCFU: Colon38 vs normal cell CFU-GM; for Product: potency multiplied by zone differentials
Method: A disk diffusion assay was performed to define the differential cell killing ability of 15-O-(3′-hydroxy-3′-isopropyl-4′-methylpentanoyl)bruceolide. Seven cell types were assayed: L1210 (ATCC CCL-219) (murine leukemia), CCRF-CEM (ATCC CCL-119) (human leukemia), Colon 38 (murine colon adenocarcinoma), HCT116 (ATCC CCL-247) (human colorectal carcinoma), H125 (human lung carcinoma). The murine and human granulocyte/macrophage progenitor cell line (CFU-GM), served as controls.
Colon 38 cells (about 1 gram) were cut into small fragments in 15 mL of Hank's Balanced Salt Solution (HBSS) over a 100-mesh sieve and gently forced through by the scissors with HBSS constantly perfusing the sieve. The resulting material was then drawn into and out of a 5 mL syringe without a needle to further disperse the cell clumps. The cell solution was diluted and plated in 0.3% agarose in DMEM plus 10% heat-inactivated Bovine Calf Serum (BCS). For plating of all of the cell types (except controls), the 60 mm plates were first prepared with a hard agar bottom layer (0.6% agar in RPMI-1640 plus 15% BCS).
A 15 μl sample of each compound was dropped onto a 6.5 mm disk (Baxter filter disks). The disks were allowed to dry overnight and then placed close to the edge of a petri dish. Depending upon the cell type, the dishes were incubated for 7 to 10 days, and examined by an inverted stereo-microscope (10×) for measurement of the zone of inhibition. The zone of inhibition was measured from the edge of the filter disk to the beginning of normal-sized colony formation. The diameter of the filter disk, 6.5 mm, was arbitrarily taken as a zone of 200 units. Compounds that were selective for killing solid tumors, as compared to leukemia or normal cells (“solid tumor selective”) were defined as those compounds which produced a difference in zones between solid tumor cells and either normal or leukemia cells of at least 250 units. The results of this analysis are set forth in Table 4, which illustrates the relative diameters of the zones of inhibition by various drugs on the growth of the respective cell types at various drug dilutions.
The degree of differential sensitivity of several inventive compounds was compared with respect to the Colon38 cell line, the L1210 cell line, and the control CFU-GM cell lines. The degree of differential sensitivity was estimated by calculating the difference between the zone of inhibition values, as determined in Example 6, for the solid tumor compared to either the leukemia (C38ΔL1210) or normal cell (C38ΔCFU).
The potency of each of several inventive compounds was determined by identifying the dilution required to yield an average zone of inhibition of 500 units for the Colon38 cell type. Then the potency and the zone differentials were multiplied to define a “product” (see Table 5), which can be used to rank the compounds tested for their potential for further development; the greater the product value the greater the probability of useful chemotherapeutic utility.

[2] = listed as 15-O-(allyloxycarbonyl) bruceolide

SMILES	% Kill, SK-N-AS (SK-N-AS; 1 h exposure)	% Kill, SK-N-AS (SK-N-AS; 24 h exposure)	% Kill, LS-174T (LS-174T; 1 h exposure)	% Kill, LS-174T (LS-174T; 24 h exposure)	Sum [1]	Sum [1, 2]	C38ΔL1210 [1]	C38ΔL1210 [1, 2]	C38ΔCFU [1]	C38ΔCFU [1, 2]	Product [1]	Product [1, 2]
C=CCOC(=O)O[C@H]1C(=O)O[C@@H]2C[C@H]3C(C)=C(O)C(=O)C[C@]3(C)[C@H]3[C@@H](O)[C@H](O)[C@@]4(C(=O)OC)OC[C@]32[C@@H]14 [15-O-(allyloxycarbonyl)-bruceolide]	1%	43%	1%	43%	1050	600	500	350	550	250	4100	3600
COC(=O)C12OCC34C(CC5C(C)=C(O)C(=O)CC5(C)C3C(O)C1O)OC(=O)C(OC(=O)C1=CCCC1)C24 (stereo not shown) [15-O-(1′-cyclopentenoyl)-bruceolide]	0%	0%	0%	8%	750		350		400		750	
COC(=O)[C@@]12OC[C@]34[C@H]([C@@H](O)[C@@H]1O)[C@@]1(C)CC(=O)C(O)=C(C)[C@@H]1C[C@H]3OC(=O)[C@H](OC(=O)CC1(O)CCCC1)[C@@H]24 [15-O-[(1′-hydroxycyclopentyl)-acetyl]-bruceolide]			36%	65%	1300		600		700		5200	
COC(=O)[C@@]12OC[C@]34[C@H]([C@@H](O)[C@@H]1O)[C@@]1(C)CC(=O)C(O)=C(C)[C@@H]1C[C@H]3OC(=O)[C@H](OC(=O)C1=CCCCC1)[C@@H]24 [15-O-(1′-cyclohexenoyl)-bruceolide]	0%	5%	12%	35%	550		200		350		550	
COC(=O)C12OCC34C(CC5C(C)=C(O)C(=O)CC5(C)C3C(O)C1OC(=O)C=C(C)C(C)C)OC(=O)C(OC(=O)C=C(C)C(C)C)C24 (stereo not shown) [12-O-(3,4-dimethyl-2-pentenoyl)-bruceantin]	0%	0%										
CCC(O)(CC)CC(=O)OC1C(=O)OC2CC3C(C)=C(O)C(=O)CC3(C)C3C(O)C(O)C4(C(=O)OC)OCC23C14 (stereo not shown) [15-O-(3′-ethyl-3′-hydroxypentanoyl)-bruceolide]	6%	71%	10%	50%	850		350		500		3400	
CCCCCCCCC=CCCCCCCCC(=O)OC1C(=O)OC2CC3C(C)=C(O)C(=O)CC3(C)C3C(O)C(O)C4(C(=O)OC)OCC23C14 (stereo not drawn) [15-O-(cis-9′-octadecenoyl)-bruceolide]	0%	0%	4%	13%								
CCC(=CC(=O)O[C@H]1C(=O)O[C@@H]2C[C@H]3C(C)=C(O)C(=O)C[C@]3(C)[C@H]3[C@@H](O)[C@H](O)[C@@]4(C(=O)OC)OC[C@]32[C@@H]14)CC [15-O-(3′-ethyl-2′-pentene-oyl)-brucelide]	0%	66%	24%	64%								
COC(=O)C12OCC34C(CC5C(C)=C(O)C(=O)CC5(C)C3C(O)C1O)OC(=O)C(OC(=O)CC(C)(C)O)C24 (stereo not shown) [15-O-(3′-hydroxy-3′-methylbutanoyl)-bruceolide]			29%	64%	950		400		550		2850	
COC(=O)C12OCC34C(CC5C(C)=C(O)C(=O)CC5(C)C3C(O)C1O)OC(=O)C(OC(=O)c1cc(C)oc1C)C24 (stereo not shown) [15-O-(2′,5′-dimethyl-3′-furoyl)-bruceolide]	0%	34%	12%	53%	1050		500		550		4200	
COC(=O)C12OCC34C(CC5C(C)=C(O)C(=O)CC5(C)C3C(O)C1O)OC(=O)C(OC(=O)OCC1COC(C)(C)O1)C24 (stereo not shown) [15-O-(solketyloxycarbonyl)-bruceolide]	0%	28%			950		400		550		1900	
COC(=O)C12OCC34C(CC5C(C)=C(O)C(=O)CC5(C)C3C(O)C1O)OC(=O)C(OC(=O)CC1(O)CCCCC1)C24 (stereo not shown) [15-O-[(1′-hydroxycyclohexyl)-acetyl]-bruceolide]	16%	80%	23%	62%	750		300		450		3000	
COC(=O)[C@@]12OC[C@]34[C@H]([C@@H](O)[C@@H]1O)[C@@]1(C)CC(=O)C(O)=C(C)[C@@H]1C[C@H]3OC(=O)[C@H](OC(=O)C=C1CCCCC1)[C@@H]24 [15-O-(cyclohexylideneacetyl)-bruceolide]			13%	63%	700		350		350		2800	
CCCCCC(=O)OC1C(=O)OC2CC3C(C)=C(O)C(=O)CC3(C)C3C(O)C(O)C4(C(=O)OC)OCC23C14 (stereo not shown) [15-O-hexanoylbruceolide]	0%	41%	19%	57%	600		400		200		600	
COC(=O)C12OCC34C(CC5C(C)=C(O)C(=O)CC5(C)C3C(O)C1O)OC(=O)C(OC(=O)C=C1CCCC1)C24 (stereo not shown) [15-O-(cyclopentylideneacetyl)-bruceolide]	0%	50%	0%	50%	800		350		450		4000	
COC(=O)C12OCC34C(CC5C(C)=C(O)C(=O)CC5(C)C3C(O)C1O)OC(=O)C(OC(=O)C=Cc1ccccc1)C24 (stereo not shown) [15-O-cinnamyl-bruceolide]	0%	61%	16%	64%								
COC(=O)C12OCC34C(CC5C(C)=C(O)C(=O)CC5(C)C3C(O)C1OC(=O)OCC1COC(C)(C)O1)OC(=O)C(OC(=O)OCC1COC(C)(C)O1)C24 (stereo not shown) [12,15-O,O-bis(Solketyloxycarbonyl)-bruceolide]	3%	5%			1000		400		600		2000	
C=CCOC(=O)OC1C(=O)OC2CC3C(C)=C(O)C(=O)CC3(C)C3C(O)C(OC(=O)OCC=C)C4(C(=O)OC)OCC23C14 (stereo not shown) [12,15-O,O-bis-(allyloxycarbonyl)-bruceolide]	0%	2%			650		300		350		650	
